Data on 12 compounds can be found in PubChem BioAssay (NCI).

Among the test systems are U251 CNS; HT29 colon; IGROV1 ovarian; LXFL 529 NSCLC; DLD-1 colon; ACHN renal; UACC-62 melanoma; HCT-116 colon.
Assay in all cases: growth of human tumour cells (NCI), 48 h

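Compound exposure: 48 hours, 5 concentrations, 96-well plates. Here, GI50 denotes the concentration required for 50% inhibition of growth. Definition used: TGI = concentration required for complete inhibition of growth.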 A value given as a limit tells only on which side of the number the result lay.

On to `CC(C)(C)OC(=O)N1C2CCCC23O[C@@H]1c1cc2c(cc1C3=O)OCO2` (some centres not stated), for which the TGI in the test with U251 CNS, in the test with HT29 colon, in the test on IGROV1 ovarian, with LXFL 529 NSCLC, in the test on DLD-1 colon and with ACHN renal was more than 100 µM in each case. Further, the TGI in the test with UACC-62 melanoma was 67 µM; with HCT-116 colon it was more than 100 µM.
As for `CC1CCC(C(C)(C)c2ccccc2)C(=O)C1` (configuration not stated), the TGI with U251 CNS, with HT29 colon, with IGROV1 ovarian, with LXFL 529 NSCLC, with DLD-1 colon and in the test on ACHN renal was more than 100 µM each time. The TGI in the test with UACC-62 melanoma and in the test with HCT-116 colon was more than 100 µM each time.
Consider `NCCN.O=C([O-])[O-].O=C([O-])[O-].[Co+3].[K+]`, for which the GI50 in the test on U251 CNS, in the test on HT29 colon, with IGROV1 ovarian, in the test on LXFL 529 NSCLC, in the test with DLD-1 colon and in the test with ACHN renal was more than 100 µM in each case. The GI50 with UACC-62 melanoma and with HCT-116 colon was more than 100 µM in each case. The TGI with U251 CNS, in the test with HT29 colon, in the test with IGROV1 ovarian, in the test with LXFL 529 NSCLC, in the test with DLD-1 colon and in the test with ACHN renal was more than 100 µM in each case. For the same compound, the TGI in the test with UACC-62 melanoma and with HCT-116 colon was more than 100 µM in each case.
Take `CCCCCCCCCCCCCCCCCCC1=C(O)C(=O)C=C(OC)C1=O`: the TGI in the test with U251 CNS, in the test with HT29 colon, in the test on IGROV1 ovarian, with LXFL 529 NSCLC, in the test on DLD-1 colon and in the test on ACHN renal was more than 100 µM throughout. The TGI with UACC-62 melanoma and in the test on HCT-116 colon was more than 100 µM throughout.
On to `COc1cc2c(cc1OC)C1Cc3cc(OC)c(OC)cc3N1CC2` (configuration not stated), for which the TGI in the test with U251 CNS was more than 100 µM; in the test on HT29 colon, more than 100 µM; with IGROV1 ovarian, more than 100 µM; with LXFL 529 NSCLC, 61.1 µM; in the test on DLD-1 colon it was more than 100 µM; with ACHN renal, 43 µM. Moreover, the TGI in the test with UACC-62 melanoma and with HCT-116 colon was more than 100 µM in each case.
On to `O=C1CC2CCN(C(=O)c3ccccc3)CC2CCN1` (configuration not stated), for which the TGI in the test with U251 CNS, in the test on HT29 colon, in the test on IGROV1 ovarian, with LXFL 529 NSCLC, in the test with DLD-1 colon and with ACHN renal was more than 100 µM throughout. For the same compound, the TGI in the test on UACC-62 melanoma and in the test on HCT-116 colon was more than 100 µM in each case.
With `CCC[CH2][Sn]1([CH2]CCC)[O]CC(COc2c(Cl)cc(Cl)cc2Cl)[O]1` (configuration not stated), the GI50 was 0.845 µM in the test on U251 CNS; 2.09 µM in the test on HT29 colon; 1.8 µM in the test with IGROV1 ovarian; 0.375 µM in the test on LXFL 529 NSCLC; 1.49 µM in the test with DLD-1 colon; 1.77 µM with ACHN renal. For the same compound, the GI50 is 1.48 µM in the test with UACC-62 melanoma and 1.67 µM in the test with HCT-116 colon. Moreover, the TGI is 2.18 µM with U251 CNS; 4.19 µM with HT29 colon; 3.46 µM in the test on IGROV1 ovarian; 1.58 µM with LXFL 529 NSCLC; 2.95 µM with DLD-1 colon; 3.17 µM with ACHN renal. For the same compound, the TGI was 2.86 µM in the test on UACC-62 melanoma and 3.03 µM with HCT-116 colon.
With `CCOC(=O)C1=C(Nc2ccc(Br)cc2)OCC1=O`, the TGI in the test with U251 CNS, with HT29 colon, in the test with IGROV1 ovarian, with LXFL 529 NSCLC, in the test with DLD-1 colon and in the test on ACHN renal was more than 100 µM in each case. Moreover, the TGI in the test with UACC-62 melanoma and in the test on HCT-116 colon was more than 100 µM each time.
For `Cc1ccc(C)c(N2C(=O)C(=O)C(c3nc4ccccc4o3)/C(=N/N)C2=O)c1` (configuration not stated), the TGI with U251 CNS, in the test on HT29 colon, in the test with IGROV1 ovarian, in the test with LXFL 529 NSCLC, with DLD-1 colon and in the test with ACHN renal was more than 100 µM throughout. In addition, the TGI in the test on UACC-62 melanoma and in the test with HCT-116 colon was more than 100 µM each time.
In the case of `C[P+](C)(C)c1ccccc1`, the TGI in the test with U251 CNS, in the test with HT29 colon, in the test with IGROV1 ovarian, in the test with LXFL 529 NSCLC, in the test with DLD-1 colon and in the test with ACHN renal was more than 100 µM in each case. In addition, the TGI in the test with UACC-62 melanoma and in the test with HCT-116 colon was more than 100 µM in each case.
With `Cc1ccc(C)c(N2C(=O)C(=O)C(c3nc4ccccc4o3)/C(=N\NC(=O)c3ccccc3O)C2=O)c1` (configuration not stated), the TGI with U251 CNS, with HT29 colon, in the test on IGROV1 ovarian, in the test on LXFL 529 NSCLC, in the test with DLD-1 colon and with ACHN renal was more than 100 µM in each case. The values for the TGI in the test with UACC-62 melanoma and with HCT-116 colon were 84.4 µM and 63.6 µM, respectively.
Consider `O=C1c2ccc3c4ccccc4n(-c4ccccc4)c3c2C(=O)N1c1ccc(Cl)cc1`, for which the TGI in the test on U251 CNS, with HT29 colon, in the test on IGROV1 ovarian, in the test with LXFL 529 NSCLC, in the test on DLD-1 colon and in the test on ACHN renal was more than 100 µM in each case. The TGI with UACC-62 melanoma and with HCT-116 colon was more than 100 µM in each case.
